Laboratory results taken from patent publication US9266844B2 (priority 2012, dated 2016).
“Also recorded” adds a separate entry of the source. Where two headings read alike, the source gives them in different places.

Columns and labels:
SARS-CoV nsp13 helicase = SARS-CoV nsp13 helicase (Severe acute respiratory syndrome coronavirus, UniProt P0C6X7); assay: biochemical
in vitro = settings: human
[1] = target: MoMLV Reverse Transcriptase (Moloney murine leukemia virus, UniProt P03355); assay type: biochemical
HCV NS3h helicase = HCV NS3h helicase (Hepatitis C virus genotype 1a, UniProt P27958); assay type: biochemical
[2] = target: Dengue virus NS3 helicase (Dengue virus type 2, UniProt P14340); assay type: biochemical
SARS-CoV replicon [3] = assay type: cell-based
dsDNA (31/18-mer) = assay type: binding
WT-nsp13 = WT-nsp13 (Severe acute respiratory syndrome coronavirus, UniProt P0C6X7); assay: biochemical
SARS-CoV replicon [4] = assay: microbe, parasite or virus in culture; assay type: cell-based; settings: read-out: EC50 Replicon (RT-qPCR)
RNA pol II/CMV promoter = assay type: cell-based
[5] = target: Klenow fragment of E. coli DNA polymerase I (KF) (Escherichia coli, UniProt P00582); assay type: biochemical
nsp13 [6] = target: T1, nsp13 (Severe acute respiratory syndrome coronavirus, UniProt P0C6X7); assay type: binding, SARS-CoV
nsp13 [7] = target: T1, nsp13; assay type: biochemical, SARS-CoV
nsp13 [8] = target: T1, nsp13; assay: biochemical; assay type: biochemical, SARS-CoV
FMDV 3Dpol = FMDV 3Dpol (Foot-and-mouth disease virus serotype O, UniProt P03305); assay type: biochemical
Sequence of FMDV 3Dpol (P03305 1863-2332 limits assumed): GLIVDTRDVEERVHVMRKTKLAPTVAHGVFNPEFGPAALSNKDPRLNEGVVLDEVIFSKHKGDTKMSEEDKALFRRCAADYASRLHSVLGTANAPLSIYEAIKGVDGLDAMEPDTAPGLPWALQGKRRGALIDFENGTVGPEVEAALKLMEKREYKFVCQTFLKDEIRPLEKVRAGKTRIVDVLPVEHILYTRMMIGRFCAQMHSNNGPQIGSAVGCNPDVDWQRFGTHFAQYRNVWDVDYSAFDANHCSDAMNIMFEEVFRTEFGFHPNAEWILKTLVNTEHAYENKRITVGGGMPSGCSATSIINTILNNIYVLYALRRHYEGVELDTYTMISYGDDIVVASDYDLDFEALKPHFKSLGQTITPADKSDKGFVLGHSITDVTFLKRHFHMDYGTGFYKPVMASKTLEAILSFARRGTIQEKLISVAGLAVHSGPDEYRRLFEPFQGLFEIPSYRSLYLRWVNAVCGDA

Sequence of HCV NS3h helicase (P27958 1193-1657 limits assumed): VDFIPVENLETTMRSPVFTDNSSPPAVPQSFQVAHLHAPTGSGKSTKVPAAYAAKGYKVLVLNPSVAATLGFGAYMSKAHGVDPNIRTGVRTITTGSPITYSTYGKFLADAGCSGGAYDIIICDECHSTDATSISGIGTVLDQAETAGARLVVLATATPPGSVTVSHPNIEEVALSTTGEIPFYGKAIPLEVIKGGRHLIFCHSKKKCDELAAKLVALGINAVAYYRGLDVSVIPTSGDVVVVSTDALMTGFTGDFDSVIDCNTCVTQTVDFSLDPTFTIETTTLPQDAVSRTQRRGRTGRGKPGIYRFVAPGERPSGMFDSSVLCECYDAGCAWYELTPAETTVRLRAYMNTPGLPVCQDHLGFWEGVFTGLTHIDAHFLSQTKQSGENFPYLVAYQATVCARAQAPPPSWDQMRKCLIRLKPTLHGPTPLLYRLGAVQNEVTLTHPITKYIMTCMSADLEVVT
Sequence of Klenow fragment of E. coli DNA polymerase I (KF) (P00582 324-928): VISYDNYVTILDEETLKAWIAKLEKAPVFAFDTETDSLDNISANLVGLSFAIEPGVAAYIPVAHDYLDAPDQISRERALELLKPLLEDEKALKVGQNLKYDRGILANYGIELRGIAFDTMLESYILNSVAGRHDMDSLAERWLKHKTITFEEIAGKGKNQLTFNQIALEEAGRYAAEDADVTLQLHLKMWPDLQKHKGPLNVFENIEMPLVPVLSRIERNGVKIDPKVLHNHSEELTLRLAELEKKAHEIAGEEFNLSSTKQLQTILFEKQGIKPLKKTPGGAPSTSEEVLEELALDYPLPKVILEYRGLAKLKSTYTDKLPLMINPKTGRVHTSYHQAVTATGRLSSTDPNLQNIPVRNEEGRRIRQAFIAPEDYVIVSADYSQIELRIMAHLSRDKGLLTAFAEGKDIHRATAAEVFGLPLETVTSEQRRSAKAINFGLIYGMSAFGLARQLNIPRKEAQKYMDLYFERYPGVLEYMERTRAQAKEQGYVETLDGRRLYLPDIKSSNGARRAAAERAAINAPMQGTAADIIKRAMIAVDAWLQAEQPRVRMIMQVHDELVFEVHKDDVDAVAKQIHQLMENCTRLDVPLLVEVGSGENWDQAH
Sequence of Dengue virus NS3 helicase (P14340 1476-2093 limits assumed): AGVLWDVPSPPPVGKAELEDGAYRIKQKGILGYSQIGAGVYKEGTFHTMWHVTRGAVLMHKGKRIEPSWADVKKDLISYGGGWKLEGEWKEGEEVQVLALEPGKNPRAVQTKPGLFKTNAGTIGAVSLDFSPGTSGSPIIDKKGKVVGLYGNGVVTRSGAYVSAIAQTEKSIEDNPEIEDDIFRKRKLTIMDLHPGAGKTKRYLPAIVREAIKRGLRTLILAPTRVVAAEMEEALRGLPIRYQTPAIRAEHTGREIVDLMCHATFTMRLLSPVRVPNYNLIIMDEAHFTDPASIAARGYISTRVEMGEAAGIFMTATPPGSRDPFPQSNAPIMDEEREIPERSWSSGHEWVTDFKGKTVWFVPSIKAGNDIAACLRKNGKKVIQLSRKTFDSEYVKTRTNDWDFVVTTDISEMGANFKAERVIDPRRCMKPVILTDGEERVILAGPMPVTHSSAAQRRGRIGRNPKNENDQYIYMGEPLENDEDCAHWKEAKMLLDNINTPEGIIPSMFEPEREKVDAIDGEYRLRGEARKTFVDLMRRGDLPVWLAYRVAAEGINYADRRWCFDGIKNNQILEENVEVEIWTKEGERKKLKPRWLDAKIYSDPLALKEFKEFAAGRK

C=CCn1c(S)nnc1CSc1ccccc1[N+](=O)[O-] [SSYA10-001, 3-[(2-nitrophenyl)sulfanylmethyl]-4-prop-2-enyl-1H-1,2,4-triazole-5-thione]
IC50 (SARS-CoV nsp13 helicase; IC50 DNA (nsp13 unwinding)): 5.3 ± 2 µM
IC50 (SARS-CoV nsp13 helicase; IC50 RNA (nsp13 unwinding)): 5.7 ± 2.3 µM
IC50 (SARS-CoV nsp13 helicase; IC50 SARS-CoV RNA (nsp13 unwinding)): 5.6 ± 0.5 µM
inhibition at 20 µM (SARS-CoV nsp13 helicase; read-out: inhibition of the helicase activity): ~100%
CC50 (in vitro): > 250 µM
cytotoxicity at 250 μM (HEK293T cells): No cytotoxicity was observed
inhibition of MoMLV Reverse Transcriptase [1]: did not cause inhibition
cytostatic effect (cell proliferation) (HEK 293T cells): did not interfere with the proliferation
inhibition of HCV NS3h helicase activity (HCV NS3h helicase): did not inhibit; also recorded: specific for SARS-CoV helicase
inhibition of Dengue virus NS3 helicase activity [2]: specific for SARS-CoV helicase
effect on SARS-CoV replication (RNase protection assay) (SARS-CoV replicon [3]): interfered with SARS-CoV replication
change of pico green fluorescent counts with dsDNA (dsDNA (31/18-mer)): did not change
IC50 (WT-nsp13): 6 µM
EC50 (SARS-CoV replicon [4]; Severe acute respiratory syndrome coronavirus, HEK-293T, 48 h): 8.95 µM
EC50 (SARS-CoV replicon [4]): ~9 µM
amount of RNA synthesized in NRC-transfected cells with vs without compound (RNA pol II/CMV promoter): No difference was observed
effect on KF polymerization and strand displacement (nucleic acid binding of the substance) [5]: did not prevent
inhibition of KF polymerase [5]: did not cause inhibition
effect on nsp13 binding to DNA (nsp13 [6]): did not affect
effect on ATP hydrolysis by nsp13 (nsp13 [7]): did not affect
Ki (nsp13 [8]): 6 ± 1.7 µM
mode of inhibition with respect to ATP and nucleic acid substrates (nsp13 [8]): non-competitive
inhibition of FMDV 3Dpol polymerase (FMDV 3Dpol): did not cause inhibition
